The target in one test is FAAH (Homo sapiens (Human), UniProt O00519). In words: FAAH activity: hydrolysis of [3H]-AEA in U937 cell homogenates. The test is classed as biochemical. Conditions: U937 cell homogenate, read-out: FAAH inhibition IC50. The protocol: Hydrolysis of [^3H]-AEA by FAAH was determined as previously described in cell homogenates of U937 cells (0.18 mg protein) (Omeir et al., 1999, Biochem Biophys Res Commun, 264, 316-20; Mor et al., 2004, J Med Chem, 47, 4998-5008). Protein amounts of cell homogenates corresponded to 0.5×10^6 cells (U937), to assure best possible comparability of IC50 values as used for the AEA cellular uptake assays. URB597 was used as positive control. Protein quantification was performed using a BCA assay (Thermo Scientific). Enzyme activity was assessed by addition of vehicle or compounds in 10 μL DMSO to 490 μL homogenate in 10 mM Tris HCl, 1 mM EDTA, 0.1% (w/v) BSA fatty acid free, pH=8 and incubation for 15 min at 37° C. After, a mixture of AEA plus [ethanolamine-1-^3H]-AEA (0.5 nM) at final 100 nM was added to the homogenates and incubated for 15 min at 37° C. The reaction was stopped by addition of 1 mL ice-cold CHCl3:MeOH (1:1) followed by vigorous vortexing. Phase separation was achieved by centrifugation at 10′000×g at 4° C. for 10 min. Radioactivity of the separated aqueous phase (upper phase) containing [^3H-ethanolamine] or [^3H-glycerol] was measured by liquid scintillation counting on a Tri-Carb 2100 TR liquid scintillation analyzer after addition of 3.5 mL Ultima Gold scintillation cocktail (PerkinElmer Life Sciences). Results are expressed as hydrolysis of tritium substrate in percent of vehicle treated control. IC50 values were calculated by GraphPad®. Data are reported as means of n=3 independent experiments performed in triplicates.
(§1) Statistical analysis and IC50 values were determined using GraphPad® Prism 5.0 (GraphPad® Software, San Diego, Calif., US). Inhibition curves were obtained by non-linear regression using the built-in log(inhibitor) vs. response-variable slope (four parameters) function. Results were calculated as % of vehicle control of the corresponding fraction (cells, aqueous phase) if not mentioned else. In vivo results are shown in absolute values and were analyzed by a one-way ANOVA following a Tukey's multiple comparison test or student's t-test. If not indicated else the results were compared vs. vehicle (CTRL). *** P<0.001, ** P<0.01, * P<0.05, ns=not significant P>0.05.

In test [1] the test system is AEA cellular uptake, U937 cells. Put plainly: [3H]-AEA cellular uptake inhibition in U937 cells. Type of test: cell-based. To be noted: U937 cells. The protocol:
[^3H]-AEA Cellular Uptake
Screening for AEA cellular uptake inhibition was performed in a semi-automated procedure: Pipetting and washing steps were performed by a Biomek3000 laboratory workstation. First, required amounts of U937 cells were centrifuged at 100×g for 5 min and resuspended in RPMI (37° C.) to a final concentration of 2×10^6 cells/mL. Then, 250 μL of cell suspension (0.5×10^6 cells per sample) were transferred into AquaSil™ silanized glass vials (Chromacol 1.1-MTV) in 96-well format. After addition of 5 μL vehicle (DMSO) or compounds the cells were incubated at 37° C. for 15 min. As positive controls OMDM-2 and UCM707 were used at 10 μM in each run. The ETI-T compounds were measured at up to 7 concentrations in triplicates from 100 pM-100 μM. After pre-incubation, a mixture of 0.5 nM[ethanolamine-1-^3H]-AEA, (60 Ci/mmol) and 99.5 nM of cold AEA (final 100 nM) was added and samples were incubated at 37° C. for another 15 min. The reaction was stopped by rapid filtration over UniFilter-96 GF/C filters (PerkinElmer) pre-soaked with PBS 0.25% BSA. Cells were washed three times with 100 μL ice-cold PBS buffer containing 1% fatty acid free BSA. After drying, 45 μL MicroScint 20 scintillation cocktail (PerkinElmer, Waltham, Mass., US) was added to the wells and the plate was sealed. Radioactivity was measured by liquid scintillation counting on a PerkinElmer Wallac Trilux MicroBeta 1450 during 2 min. Non-specific binding of [^3H]AEA (100 nM) to the glass vials was never higher than 10%. IC50 values were calculated by GraphPad® by non-linear regression using the built-in log(inhibitor) vs. response-variable slope (four parameters) function.
as §1

The target of another test is hCB1 receptor (Homo sapiens (Human), UniProt P21554). Put plainly: Radioligand CB receptor binding, [3H]-CP55,940 displacement on CHO-K1 hCB1 membranes. To be noted: Table 4. On the procedure:
Stably transfected CHO-K1 cells expressing hCB1 or hCB2 receptors (Gertsch et al., 2008, Proc Natl Acad Sci 105, 9099-104) were cultured in T150 cm^2 flasks up to 90% confluence. The medium was removed and cells were washed twice with PBS, 37° C. 10 mL of PBS was added and the cells were scraped and transferred into a falcon tube following homogenization by a Polytron PT1300D for 5 min at 30 krpm. Then, the homogenate was centrifuged (1400×g, 5 min) to remove debris. The supernatant was subjected to ultracentrifugation (64000×g, 45 min, 4° C.) to separate cytosolic from the membrane fraction. The supernatant was discharged and the pellet resuspended in PBS by sonication. Protein quantity was determined by BCA assay (Thermo Scientific) and aliquots of 500 μL were stored at −80° C. until use.
Radioligand CB Receptor Binding
Binding properties of ETI-T compounds to hCB1 or hCB2 receptors were performed as previously reported in a [^3H]-CP55,940 displacement assay (Gertsch et al., 2008, Proc Natl Acad Sci 105, 9099-104). WIN 55,212-2 was used as positive control. In brief, 20 μg protein of CHO-K1 hCB1 or hCB2 membrane preparations were thawed on ice and resuspended in a final volume of 500 μL binding buffer (50 mM Tris-HCl, 2.5 mM EDTA, 5 mM MgCl2, 0.5% fatty acid free BSA, pH 7.4) in silanized glass vials. [^3H]-CP55,940 (168 Ci/mmol) (PerkinElmer, Waltham, Mass., US) was added to a final concentration of 0.5 nM followed by the addition of competitors or vehicle in 5 μL DMSO. Membrane binding was equilibrated for 2 h at room temperature (25° C.). Samples were filter through a 0.1% polyethylenimine pre-soaked UniFilter®-96 GF/B plate (PerkinElmer) and washed twelve times with 167 μL ice-cold assay-buffer. The plate was dried, bottom sealed and 45 μL MicroScint 20 scintillation cocktail (PerkinElmer) were added before measured on a PerkinElmer 1450 Microbeta TRILUX liquid scintillation counter. Unspecific binding was determined by WIN 55,212-2, 10 μM and subtracted from all values. […].

Another test addresses CB1 receptor. To be noted: literature values of reference substances; cited from earlier work.
The mark [2] stands for this setting: Homo sapiens, U-937, Table 1, 100 nM AEA, read-out: AEA uptake inhibition IC50.
Setting [3] is: Homo sapiens, U-937, Table 4, read-out: AEA uptake IC50.

Structures are written as SMILES. Read-outs that look alike come from different tables or passages of the source.

Chain of FAAH (O00519 whole entry): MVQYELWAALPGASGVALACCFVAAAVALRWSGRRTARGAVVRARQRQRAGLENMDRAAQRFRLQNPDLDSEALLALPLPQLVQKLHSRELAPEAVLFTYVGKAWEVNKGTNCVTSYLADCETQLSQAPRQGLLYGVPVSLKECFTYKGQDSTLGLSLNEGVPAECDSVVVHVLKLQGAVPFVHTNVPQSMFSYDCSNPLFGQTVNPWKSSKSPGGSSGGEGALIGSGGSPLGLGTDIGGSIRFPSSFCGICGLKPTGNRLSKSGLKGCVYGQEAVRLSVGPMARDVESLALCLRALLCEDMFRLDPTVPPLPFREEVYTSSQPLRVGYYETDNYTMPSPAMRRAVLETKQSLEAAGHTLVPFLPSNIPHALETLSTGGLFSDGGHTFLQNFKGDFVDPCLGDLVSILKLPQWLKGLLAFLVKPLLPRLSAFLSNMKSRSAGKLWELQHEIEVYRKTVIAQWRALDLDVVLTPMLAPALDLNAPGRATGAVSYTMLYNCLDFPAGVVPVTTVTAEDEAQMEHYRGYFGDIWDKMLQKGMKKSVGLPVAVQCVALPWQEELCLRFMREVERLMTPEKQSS
Chain of hCB1 receptor (P21554 whole entry): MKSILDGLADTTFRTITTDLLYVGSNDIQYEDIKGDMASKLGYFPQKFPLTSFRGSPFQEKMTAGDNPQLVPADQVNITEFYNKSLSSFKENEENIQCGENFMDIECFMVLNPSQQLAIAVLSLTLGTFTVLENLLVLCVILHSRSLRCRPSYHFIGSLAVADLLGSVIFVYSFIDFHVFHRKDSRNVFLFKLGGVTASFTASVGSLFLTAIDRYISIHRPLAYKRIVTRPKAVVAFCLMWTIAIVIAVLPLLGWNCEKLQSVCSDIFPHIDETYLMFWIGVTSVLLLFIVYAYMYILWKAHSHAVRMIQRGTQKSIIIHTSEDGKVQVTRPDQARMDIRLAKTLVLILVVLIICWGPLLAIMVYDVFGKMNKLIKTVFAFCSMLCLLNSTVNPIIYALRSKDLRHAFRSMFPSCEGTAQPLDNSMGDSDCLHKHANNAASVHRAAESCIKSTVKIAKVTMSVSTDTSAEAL

By IC50 is commonly meant the concentration that gives 50% inhibition. Take `Cc1ccc(/N=C2\S/C(=C\c3ccc(O)c(Cl)c3)C(=O)N2c2ccc(C)c(Cl)c2)cc1Cl` [Compound 21]: the IC50 at FAAH (Table 4) stood at 58.9 µM; in test [1] (setting [2]), 798 nM; in test [1] (setting [3]), 798 nM. Also, at hCB1 receptor, the CB1 receptor binding (%) at 10 µM turned out to be 45%.
For the compound `C/C=C/c1cc(/C=C2\S/C(=N\c3ccccc3)N(CCOC)C2=O)cc(OCC)c1O` [Compound 22], the IC50 at FAAH (Table 4) was over 100 µM; in test [1] (setting [2]) it was 899 nM; in test [1] (setting [3]) it was 899 nM. The compound further had a CB1 receptor binding (%) at 10 µM on hCB1 receptor of 34%.
For the compound `CN(C)c1ccc(/C=C2\S/C(=N\c3ccccc3)N(C3CCCCC3)C2=O)cc1` [ETI-T-385], the half-maximal inhibitory concentration (IC50) on FAAH (Table 4) is 0.985 µM; in test [1] (setting [3]), 1080 nM. In addition, the CB1 receptor binding (%) at 10 µM at hCB1 receptor turned out to be 40%.
As usually defined, the Ki is the dissociation constant of the complex between target and ligand, obtained from inhibition or displacement. In the case of `CCCCCCCC/C=C\CCCCCCCC(=O)N[C@@H](CO)c1ccc(O)cc1` [OMDM-2, (R)—N-(1-(4-hydroxyphenyl)-2-hydroxyethyl)oleamide, reference compound], the Ki at CB1 receptor was 5.1 µM. For the same compound, the IC50 in test [1] (setting [2]) turned out to be 3900 nM.
`CCCCC/C=C\C/C=C\C/C=C\C/C=C\CCCC(=O)NCc1ccoc1` [UCM707, N-(3-furanylmethyl)-(5Z,8Z,11Z,14Z)-eicosatetraenamide, reference compound]: the IC50 at FAAH (Table 2) came out at 8.3 µM; in test [1] (Table 1, 100 nM AEA, read-out: AEA uptake inhibition IC50), 1900 nM. Also, the Ki at CB1 receptor was over 1 µM.

The values above are taken from patent US10300048B2, “Thiazolidinones as cellular anandamide uptake inhibitors and their use in the treatment of psychiatric or neurological disorders and inflammation, in particular neuroinflammation” (UNIVERSITAT BERN, priority 2014, dated 2019).
